Reference: patent publication US20210278408A1, “METHODS OF TREATMENT OF CANCER WITH SUBSTITUTED PYRROLE AND PYRAZOLE COMPOUNDS AND DIAGNOSIS OF CANCERS SUSCEPTIBLE TO TREATMENT WITH SUBSTITUTED PYRROLE AND PYRAZOLE COMPOUNDS” (Bantam Pharmaceutical, LLC, priority 2018, published 2021)
Where two headings read alike, the source gives them in different places.

Test system: 407 cancer cell lines
Test: Cell viability of cancer cell lines (IC50), CellTiter-Glo Viability Assay, 96 h
Type: cell-based
Details: for IC50: read-out: Absolute IC50
Method: Viability was determined by using the 50% inhibitory concentration (IC50) as determined with the CellTiter-Glo® Viability Assay (Promega).
Experiments were initiated by first thawing and equilibrating the CellTiter-Glo® Buffer to room temperature. The lyophilized CellTiter-Glo® Substrate was also equilibrated to room temperature. The lyophilized substrate was reconstituted with the CellTiter-Glo® buffer to form the CellTiter-Glo® Reagent.
Cells were harvested during the logarithmic growth period, counted, and the cell concentration adjusted to 4.44×10^4 cells/mL using culture medium.
Cells were allowed to grow overnight and the following day, the TO reading was obtained by adding 10 μL culture medium to each well of Plate A. The plate was allowed to equilibrate at room temperature for thirty minutes, after which 50 μL CellTiter-Glo® reagent was added to each well. The contents were mixed for 5 min on an orbital shaker to induce cell lysis. Plates were incubated for 20 minutes to stabilize the luminescent signal and the TO luminescence recorded.
Test plate B was incubated for 96 h in the humidified incubator at 37° C. with 5% CO2.
Following the incubation, the plate was equilibrated at room temperature for thirty minutes. CellTiter-Glo® (50 μL) was added to each well of the plate and contents mixed for five minutes on an orbital shaker to induce cell lysis. The luminescent signal was allowed to stabilize at room temperature for 20 minutes and the luminescence recorded.
IC50 (EC50) was calculated using a dose-response curve, fitted using a nonlinear regression model with a sigmoidal dose response. Survival rate was calculated using the formula:
The Surviving rate (%)=(LumTest article−LumMedium control)/(LumNon-treated−LumMedium control)×100%.
Absolute IC50 (EC50) was calculated according to the dose-response curve generated by the statistical software (GraphPad Prism 5.0).

N.N.[Cl][Pt][Cl] [Cisplatin, reference compound]
IC50 (Raji cells, 96 h): 2070 nM
IC50 (Ramos cells, 96 h): 640 nM
IC50 (Reh): 430 nM
IC50 (SCC-4, 96 h): 2960 nM
IC50 (SCC-9 cells, 96 h): 8370 nM
IC50 (SCC-15 cells, 96 h): 3300 nM
IC50 (SCH cells, 96 h): 6820 nM
IC50 (SF268 cells, 96 h): 1430 nM
IC50 (SF-126 cells, 96 h): 1950 nM
IC50 (SF-763): 7560 nM
IC50 (SH-SY5Y): 270 nM
IC50 (SJSA-1): 3290 nM
IC50 (SK-BR-3): 600 nM
IC50 (SK-CO-1 cells, 96 h): 210 nM
IC50 (SK-HEP-1 cells, 96 h): 13200 nM
IC50 (SK-LU-1 cells, 96 h): 1380 nM
IC50 (SK-MEL-5, 96 h): 3200 nM
IC50 (SK-MEL-28, 96 h): 5620 nM
IC50 (SK-MES-1): 2630 nM
IC50 (SK-N-FI cells, 96 h): 1340 nM
IC50 (SK-N-SH): 360 nM
IC50 (SK-NEP-1 cells, 96 h): 600 nM
IC50 (SK-OV-3 cells, 96 h): 2880 nM
IC50 (SK-UT-1 cells, 96 h): 6940 nM
IC50 (SNU-1 cells, 96 h): 2150 nM
IC50 (SNU-5, 96 h): 2100 nM
IC50 (SNU-81): 3700 nM
IC50 (SNU-216 cells, 96 h): 6070 nM
IC50 (SNU-354): 13800 nM
% inhibition at top conc. (SNU-368): 81.47%
IC50 (SNU-368): 20200 nM
IC50 (SNU-387): 43400 nM
IC50 (SNU-398): 4900 nM
IC50 (SNU-423 cells, 96 h): 6060 nM
IC50 (SNU-449): 3520 nM
IC50 (SNU-475 cells, 96 h): 520 nM
IC50 (SNU-484 cells, 96 h): 4960 nM
IC50 (SNU-601 cells, 96 h): 600 nM
IC50 (SNU-620 cells, 96 h): 7030 nM
IC50 (SNU-638 cells, 96 h): 4480 nM
IC50 (SNU-668 cells, 96 h): 4960 nM
IC50 (SNU-719 cells, 96 h): 13300 nM
IC50 (SNU-739): 810 nM
IC50 (SNU-761 cells, 96 h): 1390 nM
IC50 (SNU-2535 cells, 96 h): 16300 nM
IC50 (SNU-C2A): 1770 nM
IC50 (SNU-C5 cells, 96 h): 2360 nM
IC50 (ST486 cells, 96 h): 260 nM
IC50 (SU-DHL-1): 280 nM
IC50 (SU-DHL-4): 340 nM
IC50 (SU-DHL-5 cells, 96 h): 500 nM
IC50 (SU-DHL-6 cells, 96 h): 1850 nM
IC50 (SU-DHL-8): 700 nM
IC50 (SUM159PT): 3150 nM
IC50 (SUP-B15): 1390 nM
IC50 (SW48 cells, 96 h): 1270 nM
IC50 (SW 156 cells, 96 h): 1030 nM
IC50 (SW480): 1820 nM
IC50 (SW579 cells, 96 h): 1410 nM
IC50 (SW626 cells, 96 h): 3970 nM
IC50 (SW684 cells, 96 h): 33400 nM
% inhibition at top conc. (SW756 cells, 96 h): 84.79%
IC50 (SW780 cells, 96 h): 1980 nM
IC50 (SW837 cells, 96 h): 4210 nM
IC50 (SW948 cells, 96 h): 17800 nM
IC50 (SW1116 cells, 96 h): 7940 nM
% inhibition at top conc. (SW1271): 85.04%
IC50 (SW1271): 17100 nM
IC50 (SW1417 cells, 96 h): 6910 nM
IC50 (SW1990): 850 nM
IC50 (SW-13): 1380 nM
IC50 (SiHa cells, 96 h): 10500 nM
IC50 (T24 cells, 96 h): 1040 nM
IC50 (T47D): 5250 nM
IC50 (T84): 3170 nM
IC50 (TF-1): 5110 nM
IC50 (TJ905 cells, 96 h): 9460 nM
IC50 (TT cells, 96 h): 28100 nM
IC50 (Toledo cells, 96 h): 490 nM
IC50 (U251 cells, 96 h): 3520 nM
IC50 (U266B1): 4530 nM
IC50 (U-87 MG cells, 96 h): 4050 nM
IC50 (U-2932 cells, 96 h): 790 nM
IC50 (UACC-812 cells, 96 h): 4610 nM
IC50 (UO.31 cells, 96 h): 4400 nM
IC50 (WM-266-4 cells, 96 h): 3120 nM
IC50 (WSU-DLCL2 cells, 96 h): 1370 nM
IC50 (WSU-NHL cells, 96 h): 230 nM
IC50 (Y-79 cells, 96 h): 4560 nM
IC50 (YCC-1 cells, 96 h): 6620 nM
IC50 (YCC-2 cells, 96 h): 720 nM
IC50 (YCC-6 cells, 96 h): 2620 nM
IC50 (YCC-10, 96 h): 690 nM
IC50 (YCC-11 cells, 96 h): 620 nM
IC50 (Z-138): 1020 nM
IC50 (ZR-75-1): 5730 nM
IC50 (ZR-75-30, 96 h): 2990 nM
